{
  "source": "paper PMC4835042",
  "about": "(Bioorganic & medicinal chemistry letters, 2015)",
  "key": {"human mGlu5 [1]": {"biological_target": "T1, human mGlu5 (Homo sapiens, UniProt P41594)", "T1 sequence (P41594 21-1212)": "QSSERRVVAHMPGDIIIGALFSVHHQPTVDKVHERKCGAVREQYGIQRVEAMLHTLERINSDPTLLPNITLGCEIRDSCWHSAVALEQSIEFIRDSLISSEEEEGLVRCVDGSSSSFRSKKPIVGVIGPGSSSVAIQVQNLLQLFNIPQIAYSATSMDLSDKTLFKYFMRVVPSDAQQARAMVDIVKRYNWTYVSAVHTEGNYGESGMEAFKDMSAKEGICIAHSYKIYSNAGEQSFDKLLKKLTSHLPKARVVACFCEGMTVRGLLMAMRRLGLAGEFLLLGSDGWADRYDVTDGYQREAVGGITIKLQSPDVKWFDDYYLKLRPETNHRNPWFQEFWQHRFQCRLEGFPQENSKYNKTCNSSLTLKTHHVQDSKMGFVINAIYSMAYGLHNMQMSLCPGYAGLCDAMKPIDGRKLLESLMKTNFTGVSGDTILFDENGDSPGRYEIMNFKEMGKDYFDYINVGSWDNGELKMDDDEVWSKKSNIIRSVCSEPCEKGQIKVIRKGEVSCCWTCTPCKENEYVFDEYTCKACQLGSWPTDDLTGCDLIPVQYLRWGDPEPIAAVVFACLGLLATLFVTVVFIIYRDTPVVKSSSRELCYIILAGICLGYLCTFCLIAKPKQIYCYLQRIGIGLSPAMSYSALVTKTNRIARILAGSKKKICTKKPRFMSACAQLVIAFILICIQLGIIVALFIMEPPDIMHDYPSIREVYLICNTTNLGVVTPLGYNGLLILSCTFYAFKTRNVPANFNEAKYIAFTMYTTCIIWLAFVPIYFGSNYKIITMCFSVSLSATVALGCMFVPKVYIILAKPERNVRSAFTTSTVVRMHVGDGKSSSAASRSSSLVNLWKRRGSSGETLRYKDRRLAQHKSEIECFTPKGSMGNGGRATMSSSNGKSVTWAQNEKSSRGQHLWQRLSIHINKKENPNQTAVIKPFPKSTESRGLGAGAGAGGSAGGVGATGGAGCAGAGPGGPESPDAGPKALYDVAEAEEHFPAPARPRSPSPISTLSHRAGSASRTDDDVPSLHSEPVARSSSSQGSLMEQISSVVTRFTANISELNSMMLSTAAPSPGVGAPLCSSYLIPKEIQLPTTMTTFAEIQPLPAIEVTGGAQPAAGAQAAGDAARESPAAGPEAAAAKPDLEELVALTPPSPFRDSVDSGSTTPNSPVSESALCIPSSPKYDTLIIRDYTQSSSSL", "test": "Calcium mobilization assay, mGlu5 PAM activity", "format": "cell-based", "conditions": "for decrease in mGlu5 potency versus comparator analog: 4n vs 4k, 4x vs 4c, 4z vs unsubstituted -CH2-O- linker, 20 vs piperazinone core; for mGlu5 activity in words: 4y vs 4k, 21a-c pyrazole unit modifications"}, "human mGlu3 [2]": {"biological_target": "T2, human mGlu3 (Homo sapiens, UniProt Q14832)", "T2 sequence (Q14832 23-879)": "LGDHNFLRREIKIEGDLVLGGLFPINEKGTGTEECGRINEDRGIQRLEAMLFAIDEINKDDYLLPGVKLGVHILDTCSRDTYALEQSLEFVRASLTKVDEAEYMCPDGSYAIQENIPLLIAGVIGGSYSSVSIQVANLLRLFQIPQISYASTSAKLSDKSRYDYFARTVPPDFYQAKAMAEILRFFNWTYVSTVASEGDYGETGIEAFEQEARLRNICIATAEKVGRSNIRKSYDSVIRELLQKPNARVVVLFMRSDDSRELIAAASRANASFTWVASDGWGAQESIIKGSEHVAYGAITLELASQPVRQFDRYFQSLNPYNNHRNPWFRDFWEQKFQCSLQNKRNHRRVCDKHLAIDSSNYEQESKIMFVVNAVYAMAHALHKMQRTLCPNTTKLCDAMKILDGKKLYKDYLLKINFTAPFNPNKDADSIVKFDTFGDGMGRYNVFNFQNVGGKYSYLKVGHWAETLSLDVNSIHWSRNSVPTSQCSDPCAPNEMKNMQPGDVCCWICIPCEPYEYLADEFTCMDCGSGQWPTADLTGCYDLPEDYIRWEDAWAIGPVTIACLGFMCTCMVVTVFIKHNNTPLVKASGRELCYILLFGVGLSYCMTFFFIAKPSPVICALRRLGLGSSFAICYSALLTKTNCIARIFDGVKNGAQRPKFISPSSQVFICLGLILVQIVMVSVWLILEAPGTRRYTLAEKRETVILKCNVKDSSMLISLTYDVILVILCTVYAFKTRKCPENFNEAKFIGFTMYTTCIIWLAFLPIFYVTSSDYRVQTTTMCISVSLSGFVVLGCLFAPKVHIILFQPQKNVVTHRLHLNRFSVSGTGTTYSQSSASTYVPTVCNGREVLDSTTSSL"}, "human mGlu3 [3]": {"biological_target": "T2, human mGlu3", "test": "cell-based"}, "Na channels": {"system": "Na channels", "test": "Cardiovascular ion channel interaction, Na channel", "conditions": "read-out: Na channel IC50"}, "[4]": {"test": "Predicted rat hepatic clearance from microsomal CLint", "format": "in vitro ADME", "conditions": "predicted hepatic clearance based on microsomal CLint data"}, "Toxicology rat MTD study": {"test": "Toxicology rat MTD study", "format": "in vivo"}, "[5]": {"test": "Terminal unbound brain concentration in the AHL study", "conditions": "rat, in vivo, po, 10 mg/kg"}, "[6]": {"test": "High content cytotoxicity assay"}, "Ca channels": {"system": "Ca channels", "test": "Cardiovascular ion channel interaction, Ca channel", "conditions": "read-out: Ca channel IC50"}, "human mGlu5 [7]": {"biological_target": "T1, human mGlu5", "conditions": "cited from earlier work"}},
  "data": [
    {"smiles": "O=C1c2cc(COc3ccccc3)nn2CCCN1c1ccc(F)cc1", "note": "[compound 20]", "values": [
      {"measurement": "decrease in mGlu5 potency versus comparator analog", "setting": "human mGlu5 [1]", "value": "~ 3 fold"}
    ]},
    {"smiles": "O=C1c2cc(COc3ccccn3)nn2CCN1c1ccc(F)cc1", "note": "[4s]", "values": [
      {"measurement": "extent of mGlu3 antagonism", "setting": "human mGlu3 [2]", "value": "full antagonism"}
    ]},
    {"smiles": "O=C1c2cc(COc3ccccc3)nn2CCN1c1ncc(F)cn1", "note": "[4n]", "values": [
      {"measurement": "decrease in mGlu5 potency versus comparator analog", "setting": "human mGlu5 [1]", "value": "~ 6 fold"}
    ]},
    {"smiles": "O=C1c2cc(OCc3ccccc3)nn2CCN1c1cc(F)ccn1", "note": "[4y]", "values": [
      {"measurement": "mGlu5 activity in words", "setting": "human mGlu5 [1]", "value": "complete loss of activity"}
    ]},
    {"smiles": "O=C1c2nc(COc3ccccc3)nn2CCN1c1ccc(F)cc1", "note": "[21a]", "values": [
      {"measurement": "mGlu5 activity in words", "setting": "human mGlu5 [1]", "value": "remarkable loss of mGlu5 potency"}
    ]},
    {"smiles": "Cc1ccc(N2CCn3nc(COc4ccccc4)cc3C2=O)cc1", "note": "[4f]", "values": [
      {"measurement": "extent of mGlu3 antagonism", "setting": "human mGlu3 [2]", "value": "full antagonism"}
    ]},
    {"smiles": "Cc1c(COc2ccccc2)nn2c1C(=O)N(c1ccc(F)cc1)CC2", "note": "[21b]", "values": [
      {"measurement": "mGlu5 activity in words", "setting": "human mGlu5 [1]", "value": "remarkable loss of mGlu5 potency"}
    ]},
    {"smiles": "O=C1c2cc(COc3cccc(F)c3)nn2CCN1c1ccc(F)cn1", "note": "[4w]", "values": [
      {"measurement": "EC50", "setting": "human mGlu3 [3]", "value": 0.14, "unit": "µM"}
    ]},
    {"smiles": "O=C1c2cc(COc3ccccc3)nn2CCN1c1ccc(F)cn1", "note": "[4k]", "values": [
      {"measurement": "IC50", "setting": "Na channels", "value": "> 10", "unit": "µM"},
      {"measurement": "Rat CLhep", "setting": "[4]", "value": 34.5, "unit": "mL/min/kg"},
      {"measurement": "death of animals at the highest dose", "setting": "Toxicology rat MTD study; 600 mg/kg p.o., rat MTD study", "value": "2/6"},
      {"measurement": "signs of CNS-related side-effects (compulsive behavior, pedaling movements of the forepaws, tremors)", "setting": "Toxicology rat MTD study; rat MTD study 25, 75, 150, 300 and 600 mg/kg p.o.", "value": "starting at the lowest tested dose"},
      {"measurement": "concentration at 90 min", "setting": "[5]", "value": 313, "unit": "nM"},
      {"measurement": "high content cytotoxicity", "setting": "[6]", "value": "> 100", "unit": "µM"},
      {"measurement": "AMES result", "setting": "AMES", "value": "benign profile"},
      {"measurement": "IC50", "setting": "Ca channels", "value": "> 10", "unit": "µM"}
    ]},
    {"smiles": "O=C1c2cc(OCc3ccccc3)nn2CCN1c1ccc(F)cc1", "note": "[4x]", "values": [
      {"measurement": "Rat CLhep", "setting": "[4]", "value": 34.6, "unit": "mL/min/kg"},
      {"measurement": "concentration at 90 min", "setting": "[5]", "value": 376, "unit": "nM"},
      {"measurement": "decrease in mGlu5 potency versus comparator analog", "setting": "human mGlu5 [1]", "value": "~ 2.5 fold"}
    ]},
    {"smiles": "O=C1c2cc(COc3ccccc3)nn2CCN1c1ccccn1", "note": "[4h]", "values": [
      {"measurement": "increased mGlu5 potency over the 3- and 4- pyridyl isomers (4i,j)", "setting": "human mGlu5 [1]", "value": "~ 3 fold"}
    ]},
    {"smiles": "O=C1c2cc(COc3ccc(F)cc3)nn2CCN1c1ccc(F)cc1", "note": "[4q]", "values": [
      {"measurement": "extent of mGlu3 antagonism", "setting": "human mGlu3 [2]", "value": "full antagonism"}
    ]},
    {"smiles": "O=C(c1ccc(F)cc1)N1CCc2oc(COc3ccccc3)nc2C1", "note": "[compound 1]", "values": [
      {"measurement": "glutamate CRC fold-shift (FS)", "setting": "human mGlu5 [7]", "value": 11}
    ]},
    {"smiles": "Cc1ccc(N2CCn3nc(COc4ccccc4)cc3C2=O)nc1", "note": "[4l]", "values": [
      {"measurement": "EC50", "setting": "human mGlu3 [3]", "value": "> 10", "unit": "µM"},
      {"measurement": "functional selectivity for mGlu5 versus mGlu3 antagonist activity", "setting": "human mGlu3 [2]", "value": "> 50", "unit": "fold"}
    ]},
    {"smiles": "CC(Oc1ccccc1)c1cc2n(n1)CCN(c1ccc(F)cc1)C2=O", "note": "(stereo not drawn) [4z]", "values": [
      {"measurement": "decrease in mGlu5 potency versus comparator analog", "setting": "human mGlu5 [1]", "value": "> 100", "unit": "fold"}
    ]},
    {"smiles": "O=C1c2cc(COc3ccccc3)nn2CCN1c1ccc(F)cc1", "note": "[4c]", "values": [
      {"measurement": "extent of mGlu3 antagonism", "setting": "human mGlu3 [2]", "value": "full antagonism"},
      {"measurement": "pEC50 (±SEM)", "setting": "human mGlu5 [1]; HEK293 cells expressing human mGlu5, average of three or more determinations", "value": "7.19 ± 0.02"}
    ]}
  ]
}
